From ChEMBL document CHEMBL3507680, “University of Dundee, Gates Library screen for HepG2 cell viability”

Assay: Human HepG2 cell viability assay in 384 well format
Assay type: toxicity, cell-based
Design: dose 125 nL, time 70.5 hour; concentration not given beside the values
Conditions: HepG2 cells, read-out: Inhibition

SMILES | cytotoxicity at 70.5 h [%]
CS(=O)(=O)NCC(=O)N[C@H]1CN(c2cnccn2)C[C@@H]1C1CC1 | 9.56
Cc1cc(C(=O)NCc2cccnc2N2CCc3ccccc3C2)[nH]n1 | -3.47
CCc1ncc2c(n1)CN(c1nc(C)ccc1C(=O)O)C2 | -10.8
O=C(c1ccc(=O)[nH]c1)N1C[C@@H]2CC[C@H](C1)N(Cc1ccccc1)C2 | -8.28
CC(C)[C@H](C)NC1CCN(c2ccc(-c3cscn3)cc2)CC1 | -14.3
Cc1nc(N(C)CCCc2nccn2C)c2c(C)nn(C)c2n1 | -6.47
O=C(NCc1cccnc1)C1CN(c2cnc3ccccc3n2)CCN1 (stereo unspecified) | 19.1
CCc1ncc2c(n1)CN(C(=O)CNC(=O)c1ccccc1)C2 | 25.5
CCOCC1CCN(C(=O)C(c2cccc(F)c2)N(C)C)CC1 (stereo unspecified) | 27.9
Cc1c(C(C)N)cnn1-c1ccccn1 (stereo unspecified) | -8.01
Nc1ccc(-c2ccc(F)cc2Cl)cn1 | -8.38
COCCN(Cc1ccsc1)C(=O)c1c(C)cc(C)[nH]c1=O | -1.09
COc1ccc(-n2c(SC)nc(O)c(Cc3ccccc3)c2=O)cc1 | -2.29
CCNc1ncc(C(=O)NC(CC)c2ccnn2C)cn1 (stereo unspecified) | -5.36
COCc1noc(CN2C[C@H](C3CC3)[C@@H](N(C)C)C2)n1 | -8.41
CCN(C)CC(=O)N1CCC(c2cc(N3CCOCC3)nc(C)n2)CC1 | -11.5
COc1ccc(N2CCN(C(=O)CCn3nccc3C)C(C)C2)cc1 (stereo unspecified) | -3.13
OCC1(O)CCCN(Cc2ccc(-c3cc[nH]n3)s2)CC1 (stereo unspecified) | -9.87
Cn1ccnc1C1CCCN(C(=O)c2ccc3nccnc3c2)C1 (stereo unspecified) | 2.22
Cc1ccn(-c2cncc(C(N)=O)c2)n1 | -14.4
CCOc1ccc2nc(CN3CCC(CN)C3)ccc2c1 (stereo unspecified) | -2.57
CN(Cc1cccc(O)c1)C(=O)c1ccc(CCC(C)(C)O)cc1 | 0.182
CC(=O)N1CCc2c(nc(-c3cccnc3)nc2N(C)CC(O)CO)C1 (stereo unspecified) | -6.57

SMILES | cytotoxicity at 70.5 h [%]
CN(C)CCn1ccnc1C1CCCN(c2nccc3ccccc23)C1 (stereo unspecified) | 1.12
CC(=O)N[C@@H]1CN(Cc2oc3ccccc3c2C)C[C@H]1c1ccc(C)o1 | -7.22
CCCN(Cc1ccccc1C)C(CC)CO (stereo unspecified) | -7.79
CO[C@@H]1c2ccccc2C2(CCN(C(=O)CNS(C)(=O)=O)CC2)[C@H]1O | 23.4
O=C(CC1COCCN1)NCCc1nc(-c2ccccn2)no1 (stereo unspecified) | -6.55
COc1cc(F)c(C(=O)N2C[C@@H](CN(C)CCO)[C@@H](CO)C2)c(F)c1 | -2.86
COc1ccc(Cc2c(O)nc(SC)n(-c3ccccc3)c2=O)cc1 | 12.6
CCOc1ccc(Cc2c(O)nc(SC)n(-c3ccccc3)c2=O)cc1 | -2.28
COc1cccc(OCc2cc(C(=O)N3CC(O)C3)n[nH]2)c1 | -2.2
CCCOc1ccc(C(=O)N[C@@H]2CCNC[C@H]2O)cc1Cl | 2.76
COc1ccc(Cl)cc1C(C(=O)O)N(C)Cc1ccon1 (stereo unspecified) | 11.7
CCNC(=O)[C@@H]1C[C@H](N)CN1C(=O)Cc1cc(C)ccc1C | -12.9
O=C(C1CCOC1)N1CCC(OCc2ccccc2)CC1 (stereo unspecified) | -5.49
CN1CCN(C(=O)c2ccc3c(c2)nc(N2CCOCC2)n3C)CC1=O | -5.46
CC1=NN(CC(=O)N2CC[C@@H]3[C@@H](CCC(=O)N3CC(C)C)C2)CC1 | -1.09
O=C(c1cnc(O)cn1)N(Cc1ccsc1)CC1CCCO1 (stereo unspecified) | 25.2
COc1cccc(OCC2CCCN(C(=O)c3ncoc3C3CC3)C2)c1 (stereo unspecified) | -11.7
COc1ncc(-c2cc(-c3ccn(C)c3)nc(N)c2C#N)cn1 | 7.14
CC(C)c1ccn(C2(C(=O)O)CCN(c3cc(C(N)=O)ccn3)CC2)n1 | -3.6
Cc1ccc2c(c1)c(CNC(=O)C1CCN(CC(N)=O)CC1)nn2C | -2.32
Cc1noc(C2CCCCN2C(=O)C2CCN(C(C)C)CC2)n1 (stereo unspecified) | 5.11
COCc1nc(CN2CC(=O)N(C)c3ccccc3C2=O)no1 | -5.63
COCCCC1CCCN(C(=O)CCc2csc(N)n2)C1 (stereo unspecified) | -11.8

SMILES | cytotoxicity at 70.5 h [%]
Fc1cccc2ncnc(NCCCc3ccncc3)c12 | -4.44
Cc1nn(C)c2ncnc(NCc3nncn3C3CCCCC3)c12 | -6.04
O=C(c1ccco1)N1CCc2ncnc(NCc3ccccn3)c2CC1 | -8.48
O=C(NCc1csc(-c2cccs2)n1)C1NCCc2[nH]cnc21 (stereo unspecified) | -19.8
C=C(C)COc1cccc(CNCCc2c[nH]cn2)c1 | -6.28
CCc1ccc2nc(C)cc(C(=O)NC[C@@H]3CCNC[C@H]3O)c2c1 | 14.5
CC(C)n1cnnc1CN(C)C(=O)c1ccc[nH]1 | 18.8
Cn1cnnc1CN1CCC2(CCCN(C3CCCCC3)C2=O)C1 (stereo unspecified) | -1.45
O=C(c1cc(=O)n(-c2ccccc2)[nH]1)N1CCCC(c2ccn[nH]2)C1 (stereo unspecified) | 48
CCC(C(=O)NCCc1nc(C)cc(C(F)(F)F)n1)n1cccn1 (stereo unspecified) | 20
COc1cccc2c1OCCCN(Cc1c[nH]nc1C(=O)O)C2 | -9
O=C(CCc1cc(Cl)no1)N1CCCCC1CCN1CCOCC1 (stereo unspecified) | -2.5
CC(=O)NCCC1CCCCN1S(=O)(=O)c1cccc(F)c1 (stereo unspecified) | 19.6
Cc1ccnc(NCCNC(=O)C2CC3(CCNCC3)CN2C)c1 (stereo unspecified) | -3.92
CCCc1nnc(N2CCN(C3CCCC3)CC2)o1 | -14.3
Cc1ccc(C(CNC(=O)c2cc(CC(C)C)nn2C)N(C)C)cc1 (stereo unspecified) | -3.96
CC(=O)c1cc(CN2CCCC2c2nc3ccc(C)cc3[nH]2)cs1 (stereo unspecified) | -3.73
CN1CCN(C[C@H]2CC[C@@H](Cc3ccc(CN4CCCC4)cc3)O2)CC1 | -6.45
Cc1noc(C)c1CN1CCC(c2nnc(Cn3cccn3)n2C)CC1 | -6.21
CC(C)CN(Cc1ccc(O)c(C(=O)O)c1)Cc1ccccn1 | 5.47
c1coc(-c2nc(CNC3CCCNC3)no2)c1 (stereo unspecified) | 1.79
Cc1nc(NC(=O)N2CCCC(N(C)C)C2)nn1C (stereo unspecified) | 31.8
Cc1[nH]c(=O)[nH]c(=O)c1CN1CCCC(CCc2ccc(F)c(F)c2)C1 (stereo unspecified) | -10.6

SMILES | cytotoxicity at 70.5 h [%]
COCC1CCN(S(=O)(=O)N2C[C@@H](C)[C@@](C)(O)C2)CC1 | -0.99
CC[C@@]1(O)CCN(C(=O)c2ccc(-c3ccco3)cc2)C[C@H]1O | -5.37
CCn1ccnc1C1CCN(Cc2c(F)cccc2F)CC1 | 3.09
CCOc1ccccc1-n1c(-c2cn(CC)nc2C)n[nH]c1=O | -4.81
CN(CCN1CCCCCC1)C(=O)c1c(O)cccc1O | -2.54
CCc1cnc(N2CCCOC(CN3CCCC3)C2)nc1 (stereo unspecified) | 7.5
OCCNc1cc(N2CCN(Cc3ccccc3)C(CCO)C2)ncn1 (stereo unspecified) | -7.07
Cc1cc(CN(C)CC2CCCN(CCc3ccc(Cl)cc3)C2)[nH]n1 (stereo unspecified) | -4.86
CCOCC(O)c1nc2c([nH]1)CC(C)(C)CNC2=O (stereo unspecified) | -11.8
CC(=O)N1C[C@@H]2CC[C@H](C1)N(Cc1ccc(Cn3cccn3)cc1)C2 | -19.2
CN(CCCc1nccn1C)C(=O)C1CCN(C(=O)C2CCC2)CC1 | 3.53
CCN(Cc1ccccc1)C(=O)CCN1C[C@@H](C(=O)O)[C@H](C2CC2)C1 | -8.23
CCCc1ccc(OC23CCCN(CC2)C3)c(OC)c1 (stereo unspecified) | -9.71
Cn1ncc(NC(=O)Cn2ccc(-c3ccc(F)cc3)n2)n1 | 0.148
Cc1nccn1CCC1CCCCN1Cc1ccc(O)cc1Cl (stereo unspecified) | 15.6
Cc1cccc2sc(NC(=O)CN3CCCC(O)(CO)C3)nc12 (stereo unspecified) | 11
O=C(NCc1cccnc1N1CCCC(O)C1)c1ccc2[nH]nnc2c1 (stereo unspecified) | -25
C[C@@H]1CN(Cc2c[nH]c(CC3CCCC3)n2)CC[C@]1(C)O | -9.37
Fc1ccc(CN2CCCC3(CCN(Cc4ncc[nH]4)C3)C2)cc1F (stereo unspecified) | -0.549
COc1ccc(C(=O)C2CCCN(c3cc(C#N)ccn3)C2)cc1F (stereo unspecified) | -6.04
CN(C)[C@H]1CCCCN(Cc2ccccc2Cn2cccn2)C1 | 2.32
COc1ccc(OC2CCN(C(=O)CCc3nc(Cl)n[nH]3)CC2)cc1 | -4.51
CCn1c(N)nc2cc(C(=O)N3CCCOCC3)cnc21 | -6.56

SMILES | cytotoxicity at 70.5 h [%]
Clc1cccc(C2CCN(c3ncnc4c3CCNC4)C2)c1 (stereo unspecified) | -1.22
CCc1oc(C(=O)NCCc2cc(O)nc(C)n2)cc1CN1CCCC1 | -6.98
Cc1csc2c(N3CCNC(C(=O)N4CCCC4)C3)ncnc12 (stereo unspecified) | -7.34
CCNC(=O)[C@@H]1C[C@H](N)CN1c1cc(CC)nc(N(C)C)n1 | -4.05
O=C(CCN1CCCCO1)N1CC[C@H](O)[C@@H](O)C1 | 11.6
CCc1cc(N[C@H](C(N)=O)C(C)C)n2nc(C)c(C)c2n1 | -6.29
Cc1nn(C)cc1C(=O)N1CCCC(c2nccn2Cc2cscn2)C1 (stereo unspecified) | -7.69
Cc1ocnc1C(=O)N1CCC2(CC1)c1nc[nH]c1CCN2CC(C)C | 27.1
O=S1(=O)C[C@@H]2[C@H](C1)N(Cc1nc3ccccc3[nH]1)CCN2CC1CC1 | -5.06
CCc1nc2c(N3CCC4(CC3)CNC(=O)C4)ncnc2o1 | -3.31
CN(C)c1cccc(C(=O)N2C[C@H]3CC[C@@H]2CN(C(=O)C2CCC2)C3)c1 | 0.254
COCCCC1(CO)CCCN(C(=O)c2cnc3c(c2)CCCC3)C1 (stereo unspecified) | -6.26
CNc1ncccc1CN1CCN2CCN(C)CC2C1 (stereo unspecified) | -7.61
COCCN(Cc1cccs1)c1nc(CCN)nc2ccccc12 | -9.93
CCn1c(C2CCN(C(=O)c3cc(Cl)no3)CC2)nn(C)c1=O | 39
O=C(Nc1ccc(F)cc1)N1CCC2(CCC(=O)N(C3CC3)C2)CC1 | -11.6
FC(F)(F)C1CN(Cc2cccc(OCc3ccccn3)c2)CCO1 (stereo unspecified) | 8.84
CC(C)[C@H]1CN(C(=O)CO)C[C@@H]1N(C)C | -13.8
Cc1cc(C(=O)N2CC[C@H](N3CCN(C)CC3)[C@H](CCCO)C2)n(C)n1 | -6.07
